Data published in article PMC10865825, “Sugar-binding and split domain combinations in repeats-in-toxin adhesins from Vibrio cholerae and Aeromonas veronii mediate cell-surface recognition and hemolytic activities” (mBio, 2024).

Target: T1, AvSBD-UKD (sugar-binding domain and split Ig-like domain of the A. veronii RTX adhesin, WP_103422706.1)
T1 construct: AvSBD-UKD, 40 kDa ortholog construct (WP_103422706.1), spanning SBD and UKD
Assay: isothermal titration calorimetry ([…]°C, one-site model, N = […])
Set-up: species or system Aeromonas veronii

## C[C@@H]1OC(O)[C@@H](O)[C@H](O)[C@@H]1O (stereo partly drawn) [L-fucose]
  Kd: 15 µM
